In patent US20260306644A1, “ANTIBODY RECRUITING MOLECULES FOR THE TREATMENT OF CORONAVIRUS DISEASE-19” (priority 2023, published 2026) one finds EC50 data, which are given here for 6 compounds.

Molecules are shown by their SMILES. Values joined by “and” are separate entries in the source; they are usually repeats but may differ in a detail not shown here. Identical values can stand only once.

For the assay, the target named is SARS-CoV-2 Spike protein (Severe acute respiratory syndrome coronavirus 2, UniProt P0DTC2). The assay is described as follows: Ternary binding of SARS-CoV-2 Spike protein (293T cells expressing Spike-GFP, IgG-AF647, flow cytometry). It counts as cell-based. The conditions noted are these: 293T cells expressing Spike-GFP; IgG-AF647 10 μg/ml; repeat values/batches listed separately; read-out: SARS-CoV-2 Ternary binding EC50. The protocol: 293T cells stably expressing SARS-CoV-2 Spike-GFP protein on their surface were incubated with a concentration range of compound for 30 minutes at 37° C.-5% CO2 in Roswell Park Memorial Institute Medium (RPMI)-5% low IgG serum with 10 μg/ml IgG-Alexa Fluor® 647 (AF647). The cells were washed twice using the same medium, resuspended in phosphate-buffered saline (PBS)-1% bovine serum albumin (BSA), and acquired on Attune™ NxT Flow Cytometer. In some embodiments, mean fluorescence intensity of AF647 as well as […] AF647 positive in GFP positive gate are reported as readouts in this assay.
Background: Flow cytometry measures light scatter and fluorescence of single cells or particles in a stream.

Usually EC50 stands for the concentration that produces a half-maximal response. Take `CC[C@H](C)[C@H](NC(=O)[C@H](Cc1c[nH]c2ccccc12)NC(=O)[C@H](CCC(=O)O)NC(=O)[C@H](CCCCN)NC(=O)[C@H](CC(=O)O)NC(C)=O)C(=O)N[C@@H](CC(C)C)C(=O)N[C@@H](CCC(N)=O)C(=O)N[C@@H](CCCCN)C(=O)N[C@H](C(=O)N[C@@H](Cc1ccc(O)cc1)C(=O)N[C@@H](CCC(=O)O)C(=O)N[C@H](C(=O)N[C@@H](CCSC)C(=O)N[C@@H](CCCNC(=N)N)C(=O)N[C@@H](CC(C)C)C(=O)N[C@@H](CC(C)C)C(=O)N[C@@H](CC(=O)O)C(=O)N[C@@H](CCC(=O)O)C(=O)N[C@@H](CC(C)C)C(=O)NCC(=O)NCCOCCOCCOCCOCCOCCOCCOCCOCCC(=O)NCCOCCOCCOCCOCCOCCOCCOCCOCCC(=O)N[C@@H](CC(=O)O)C(=O)N[C@H]1CSSC[C@@H](C(=O)N[C@H](C(N)=O)[C@@H](C)O)NC(=O)[C@H](Cc2c[nH]c3ccccc23)NC(=O)[C@H](C(C)C)NC(=O)[C@H](CC(C)C)NC(=O)[C@H](CCC(=O)O)NC(=O)CNC(=O)[C@H](CC(C)C)NC(=O)[C@H](Cc2c[nH]cn2)NC(=O)[C@H](Cc2c[nH]c3ccccc23)NC(=O)[C@H](C)NC1=O)[C@@H](C)CC)[C@@H](C)CC` [Compound 151]: the EC50 was over 10 nM.
With `CC[C@H](C)[C@H](NC(=O)[C@H](Cc1c[nH]c2ccccc12)NC(=O)[C@H](CCC(=O)O)NC(=O)[C@H](CCCCN)NC(=O)[C@H](CC(=O)O)NC(C)=O)C(=O)N[C@@H](CC(C)C)C(=O)N[C@@H](CCC(N)=O)C(=O)N[C@@H](CCCCN)C(=O)N[C@H](C(=O)N[C@@H](Cc1ccc(O)cc1)C(=O)N[C@@H](CCC(=O)O)C(=O)N[C@H](C(=O)N[C@@H](CCSC)C(=O)N[C@@H](CCCNC(=N)N)C(=O)N[C@@H](CC(C)C)C(=O)N[C@@H](CC(C)C)C(=O)N[C@@H](CC(=O)O)C(=O)N[C@@H](CCC(=O)O)C(=O)N[C@@H](CC(C)C)C(=O)NCC(=O)N[C@@H](Cc1c[nH]cn1)C(=O)N[C@@H](C)C(=O)N[C@@H](CCC(=O)O)C(=O)N[C@@H](C)C(=O)N[C@@H](CO)C(=O)NCCOCCOCCOCCOCCOCCOCCOCCOCCC(=O)NCCOCCOCCOCCOCCOCCOCCOCCOCCC(=O)N[C@@H](CC(=O)O)C(=O)N[C@H]1CSSC[C@@H](C(=O)N[C@H](C(N)=O)[C@@H](C)O)NC(=O)[C@H](Cc2c[nH]c3ccccc23)NC(=O)[C@H](C(C)C)NC(=O)[C@H](CC(C)C)NC(=O)[C@H](CCC(=O)O)NC(=O)CNC(=O)[C@H](CC(C)C)NC(=O)[C@H](Cc2c[nH]cn2)NC(=O)[C@H](Cc2c[nH]c3ccccc23)NC(=O)[C@H](C)NC1=O)[C@@H](C)CC)[C@@H](C)CC` [Compound 152], the 50% effective concentration (EC50) was over 100 nM.
Consider `CC[C@H](C)[C@H](NC(=O)[C@H](Cc1c[nH]c2ccccc12)NC(=O)[C@H](CCC(=O)O)NC(=O)[C@H](CCCCN)NC(=O)[C@H](CC(=O)O)NC(C)=O)C(=O)N[C@@H](CC(C)C)C(=O)N[C@@H](CCC(N)=O)C(=O)N[C@@H](CCCCN)C(=O)N[C@H](C(=O)N[C@@H](Cc1ccc(O)cc1)C(=O)N[C@@H](CCC(=O)O)C(=O)N[C@H](C(=O)N[C@@H](CCSC)C(=O)N[C@@H](CCCNC(=N)N)C(=O)N[C@@H](CC(C)C)C(=O)N[C@@H](CC(C)C)C(=O)N[C@@H](CC(=O)O)C(=O)N[C@@H](CCC(=O)O)C(=O)N[C@@H](CC(C)C)C(=O)NCC(=O)N[C@@H](Cc1c[nH]cn1)C(=O)N[C@@H](C)C(=O)N[C@@H](CCC(=O)O)C(=O)N[C@@H](C)C(=O)N[C@@H](CO)C(=O)N[C@@H](CCSC)C(=O)N[C@@H](CCCNC(=N)N)C(=O)N[C@H](C(=O)N[C@@H](CO)C(=O)NCCOCCOCCOCCOCCOCCOCCOCCOCCC(=O)NCCOCCOCCOCCOCCOCCOCCOCCOCCC(=O)N[C@@H](CC(=O)O)C(=O)N[C@H]1CSSC[C@@H](C(=O)N[C@H](C(N)=O)[C@@H](C)O)NC(=O)[C@H](Cc2c[nH]c3ccccc23)NC(=O)[C@H](C(C)C)NC(=O)[C@H](CC(C)C)NC(=O)[C@H](CCC(=O)O)NC(=O)CNC(=O)[C@H](CC(C)C)NC(=O)[C@H](Cc2c[nH]cn2)NC(=O)[C@H](Cc2c[nH]c3ccccc23)NC(=O)[C@H](C)NC1=O)C(C)C)[C@@H](C)CC)[C@@H](C)CC` [Compound 153], for which the concentration for a half-maximal effect (EC50) is over 10 nM.
As to `CC[C@H](C)[C@H](NC(=O)[C@H](CC(C)C)NC(=O)[C@H](CC(=O)O)NC(=O)[C@H](CO)NC(=O)[C@@H](NC(=O)[C@H](CCCNC(=N)N)NC(=O)[C@H](CCSC)NC(=O)[C@H](CO)NC(=O)[C@H](C)NC(=O)[C@H](CCC(=O)O)NC(=O)[C@H](C)NC(=O)[C@H](Cc1c[nH]cn1)NC(=O)CNC(=O)[C@H](CC(C)C)NC(=O)[C@H](CCC(=O)O)NC(=O)[C@H](CC(=O)O)NC(=O)[C@H](CC(C)C)NC(=O)[C@H](CC(C)C)NC(=O)[C@H](CCCNC(=N)N)NC(=O)[C@H](CCSC)NC(=O)[C@@H](NC(=O)[C@H](CCC(=O)O)NC(=O)[C@H](Cc1ccc(O)cc1)NC(=O)[C@@H](NC(=O)[C@H](CCCCN)NC(=O)[C@H](CCC(N)=O)NC(=O)[C@H](CC(C)C)NC(=O)[C@@H](NC(=O)[C@H](Cc1c[nH]c2ccccc12)NC(=O)[C@H](CCC(=O)O)NC(=O)[C@H](CCCCN)NC(=O)[C@H](CC(=O)O)NC(C)=O)[C@@H](C)CC)[C@@H](C)CC)[C@@H](C)CC)C(C)C)C(=O)N[C@@H](Cc1ccc(O)cc1)C(=O)N[C@@H](CCC(=O)O)C(=O)NCCOCCOCCOCCOCCOCCOCCOCCOCCC(=O)NCCOCCOCCOCCOCCOCCOCCOCCOCCC(=O)N[C@@H](CC(=O)O)C(=O)N[C@H]1CSSC[C@@H](C(=O)N[C@H](C(N)=O)[C@@H](C)O)NC(=O)[C@H](Cc2c[nH]c3ccccc23)NC(=O)[C@H](C(C)C)NC(=O)[C@H](CC(C)C)NC(=O)[C@H](CCC(=O)O)NC(=O)CNC(=O)[C@H](CC(C)C)NC(=O)[C@H](Cc2c[nH]cn2)NC(=O)[C@H](Cc2c[nH]c3ccccc23)NC(=O)[C@H](C)NC1=O` [Compound 154], the EC50 is over 100 nM.
As for `CC[C@H](C)[C@H](NC(C)=O)C(=O)N[C@@H](Cc1ccc(O)cc1)C(=O)N[C@@H](CCC(=O)O)C(=O)N[C@H](C(=O)N[C@@H](CCSC)C(=O)N[C@@H](CCCNC(=N)N)C(=O)N[C@@H](CC(C)C)C(=O)N[C@@H](CC(C)C)C(=O)N[C@@H](CC(=O)O)C(=O)N[C@@H](CCC(=O)O)C(=O)N[C@@H](CC(C)C)C(=O)NCC(=O)N[C@@H](Cc1c[nH]cn1)C(=O)N[C@@H](C)C(=O)N[C@@H](CCC(=O)O)C(=O)N[C@@H](C)C(=O)N[C@@H](CO)C(=O)N[C@@H](CCSC)C(=O)N[C@@H](CCCNC(=N)N)C(=O)N[C@H](C(=O)N[C@@H](CO)C(=O)N[C@@H](CC(=O)O)C(=O)N[C@@H](CC(C)C)C(=O)N[C@H](C(=O)N[C@@H](Cc1ccc(O)cc1)C(=O)N[C@@H](CCC(=O)O)C(=O)N[C@@H](Cc1ccccc1)C(=O)N[C@@H](CCSC)C(=O)N[C@@H](CCCCN)C(=O)N[C@@H](CCCCN)C(=O)NCC(=O)NCCOCCOCCOCCOCCOCCOCCOCCOCCC(=O)NCCOCCOCCOCCOCCOCCOCCOCCOCCC(=O)N[C@@H](CC(=O)O)C(=O)N[C@H]1CSSC[C@@H](C(=O)N[C@H](C(N)=O)[C@@H](C)O)NC(=O)[C@H](Cc2c[nH]c3ccccc23)NC(=O)[C@H](C(C)C)NC(=O)[C@H](CC(C)C)NC(=O)[C@H](CCC(=O)O)NC(=O)CNC(=O)[C@H](CC(C)C)NC(=O)[C@H](Cc2c[nH]cn2)NC(=O)[C@H](Cc2c[nH]c3ccccc23)NC(=O)[C@H](C)NC1=O)[C@@H](C)CC)C(C)C)[C@@H](C)CC` [Compound 156], the half-maximal effective concentration (EC50) was over 100 nM.
Regarding `CC[C@H](C)[C@H](NC(=O)[C@H](CC(C)C)NC(=O)[C@H](CC(=O)O)NC(=O)[C@H](CO)NC(=O)[C@@H](NC(=O)[C@H](CCCNC(=N)N)NC(=O)[C@H](CCSC)NC(=O)[C@H](CO)NC(=O)[C@H](C)NC(=O)[C@H](CCC(=O)O)NC(=O)[C@H](C)NC(=O)[C@H](Cc1c[nH]cn1)NC(=O)CNC(=O)[C@H](CC(C)C)NC(=O)[C@H](CCC(=O)O)NC(=O)[C@H](CC(=O)O)NC(=O)[C@H](CC(C)C)NC(=O)[C@H](CC(C)C)NC(=O)[C@H](CCCNC(=N)N)NC(=O)[C@H](CCSC)NC(=O)[C@@H](NC(=O)[C@H](CCC(=O)O)NC(=O)[C@H](Cc1ccc(O)cc1)NC(=O)[C@@H](NC(=O)[C@H](CCCCN)NC(=O)[C@H](CCC(N)=O)NC(=O)[C@H](CC(C)C)NC(=O)[C@@H](NC(=O)[C@H](Cc1c[nH]c2ccccc12)NC(=O)[C@H](CCC(=O)O)NC(=O)[C@H](CCCCN)NC(=O)[C@H](CC(=O)O)NC(C)=O)[C@@H](C)CC)[C@@H](C)CC)[C@@H](C)CC)C(C)C)C(=O)N[C@@H](Cc1ccc(O)cc1)C(=O)N[C@@H](CCC(=O)O)C(=O)N[C@@H](Cc1ccccc1)C(=O)N[C@@H](CCSC)C(=O)N[C@@H](CCCCN)C(=O)N[C@@H](CCCCN)C(=O)NCC(=O)NCCOCCNC(=O)[C@@H]1CSCC(=O)N[C@@H](C)C(=O)N[C@@H](CO)C(=O)N[C@@H](Cc2ccc(O)cc2)C(=O)N[C@@H](Cc2c[nH]cn2)C(=O)N[C@@H](CC(C)C)C(=O)NCC(=O)N[C@@H](CCC(=O)O)C(=O)N[C@@H](CC(C)C)C(=O)N[C@@H](C(C)C)C(=O)N[C@@H](Cc2c[nH]c3ccccc23)C(=O)N2Cc3ccccc3C[C@H]2C(=O)NC(C)(C)C(=O)N1` [Compound 159], the half-maximal effective concentration (EC50) was 3 nM and 2.8 nM.
